Results reported in patent US20110178104A1, “Anti-Heparin Compounds” (POLYMEDIX INC., priority 2010, published 2011).
Converted amounts (≈) assume the structure as drawn. “And” between values parts separate entries of the source, which are not always exact repeats. Identical values can stand only once.

Experiments:
[1] = system: unfractionated heparin (UFH); test: aPTT clotting assay, UFH 0.2 U/mL in plasma (Example 7); format: biochemical; details: UFH 0.2 U/mL in plasma
Experimental: (§1) aPTT clotting Assay. Unfractionated heparin was mixed with plasma at a final concentration of 0.2 U/mL. […] The ACL Elite Hemostasis analyzer (Beckman Coulter™) was used to add aPTT reagent (HemosIL SynthASil) to supplemented plasma. Clotting was initiated by addition of CaCl2 and time to clot was recorded.

[2] = system: enoxaparin; test: FXa amidolytic assay in human plasma, enoxaparin; format: biochemical; details: enoxaparin 10 μg/mL, at a concentration of about 50 μg/mL
[3] = system: enoxaparin (ENOX); test: FXa chromogenic assay (absence of plasma), enoxaparin; details: enoxaparin 0.1 μg/mL, absence of plasma
[4] = system: fondaparinux (FONDAPX); test: FXa chromogenic assay (absence of plasma), fondaparinux; details: fondaparinux 0.02 μg/mL, absence of plasma
[5] = system: isolated human erythrocytes; test: in vitro; format: cell-based
How it was run: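 Test agent was serially diluted two-fold over 0.48–1000 µg/ml and incubated for 1 h at 37 °C with shaking, using erythrocytes from pooled human blood diluted in Tris-buffered saline pH 7.4 (0.22% stock). Hemolysis was measured as supernatant absorbance at 405 nm. A four-parameter logistic equation gave EC50, and melittin served as the positive control.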

[6] = Cytotoxicity colorimetric assay, HepG2; format: cell-based, human; set-up: Cytotoxicity HepG2, percent printed in parentheses after the concentration: concentration or dose not given beside the values; details: human, HepG2 cells, one hour in serum-free media
How it was run: (§2)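 HepG2 cells (3×10^4/well, MEM + 10% FBS) and NIH/3T3 cells (2×10^4/well, DMEM + 10% BCS) were exposed to compound for 1 h in serum-free medium. Viability read by tetrazolium-to-formazan bioreduction after return to serum medium; EC50 from a four-parameter logistic fit.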

[7] = system: HepG2 cells; test: Cytotoxicity colorimetric assay, HepG2; format: cell-based, human; set-up: Cytotoxicity HepG2, percent printed in parentheses after the concentration: concentration or dose not given beside the values; details: for Cytotoxicity HepG2 EC50: one hour in serum-free media
How it was run: as §2

[8] = Cytotoxicity colorimetric assay, NIH/3T3; format: cell-based, mouse; details: mouse, NIH/3T3 cells, one hour in serum-free media
How it was run: as §2

[9] = system: NIH/3T3 cells; test: Cytotoxicity colorimetric assay, NIH/3T3; format: cell-based, mouse; details: for Cytotoxicity 3T3 EC50: one hour in serum-free media
How it was run: as §2

[10] = system: Unfractionated heparin; test: aPTT clotting assay, UFH 0.4 U/mL in plasma (Example 10); format: biochemical; details: unfractionated heparin 0.4 U/mL in plasma; aPTT clotting
Experimental: as §1, with “Assay:” for “Assay.”, “0.4 U/mL (or concentration which increases aPTT time to between 120 and 300 seconds).” for “0.2 U/mL.”

[11] = system: enoxaparin; test: In vivo neutralization of enoxaparin in the rat; details: for in vivo efficacy versus LMWH by anti-factor Xa activity (summary): compared with protamine; for neutralization of enoxaparin (aPTT and factor Xa assays, words): rat, enoxaparin 2 mg/kg IV
Experimental: Compounds were tested for their ability to neutralize enoxaparin coagulation inhibition in rats. Male Sprague-Dawley rats were used in this study (Charles River Laboratories). They were ten-weeks-old at the start of the study and their weights ranged from 319-362 g. Enoxaparin (2 mg/kg) was administered by IV injection to groups of six rats. After 3 min, saline, protamine or a test compound was administered by IV injection. Blood was collected before dosing with enoxaparin, and at 1, 3, 10, 30 and 60 min after dosing with the standard and test compounds. All treatments were dosed in a volume of 1 mL/kg. Blood was collected via the orbital sinus from three rats per group. At each time point, 1 mL of blood was collected from each animal into a single tube. The blood was analyzed using an AMEX Destiny Plus Coagulation Analyzer for activated partial thromboplastin time (APTT) and anti-Factor Xa (low-molecular weight).

[12] = system: enoxaparin; test: Enoxaparin-extended bleeding times, rat tail transection model; format: in vivo; details: for neutralization of prolonged bleeding times: rat, enoxaparin 2 mg/kg IV
Experimental: Studies have now been done to examine effects on extended bleeding times caused by enoxaparin treatment. Male Sprague Dawley rats (Charles River) were administered 2 mg/kg enoxaparin by IV injection in the tail vein, followed 3 minutes later by test agent (IV, tail vein) at 2 and 5 mg/kg doses. Tails were then rapidly transected and bleeding time onto an absorbant pad was determined. Enoxaparin alone (no antagonist) extends bleeding time from 11 to 24 seconds.

[13] = system: fondaparinux; test: In vivo neutralization of fondaparinux in the rat; details: for reduction of Factor Xa (anti-factor Xa) levels after fondaparinux: fondaparinux 0.5 mg/kg IV, test agent 2 and 5 mg/kg IV
Experimental: Compounds were selected to test fondaparinux neutralization in vivo. Rats were pre-treated with fondaparinux administered by IV injection at 0.5 mg/kg. The rats were then treated with a single IV injection of saline, protamine or the PMX compound. Blood was collected via the orbital sinus from three rats per group at the following time points: pre-dose, 1, 3, 10, 30 and 60 min. Plasma samples were prepared for analysis of anti-factor Xa activity using an AMEX Destiny Plus Coagulation Analyzer.

[14] = system: blood pressure; test: Hemodynamic responses in the anesthetized rat; format: in vivo; details: for hemodynamic response profile: anesthetized rat, 8 or 16 mg/kg 10 minute IV infusion after heparin 50 U/kg; for hemodynamic liabilities (summary): rat, in vivo
Description: As a key safety issue for cationic compounds is reduction in blood pressure shortly after administration. To address this hemodynamic issue, a medicinal chemistry strategy with literature precedence of introducing carboxylic acid functionality was applied to the salicylamide series of compounds. […] Surgically prepared animals were purchased from Charles River Laboratories, Raleigh, N.C. Animals were anesthetized on the day of experiment with isoflurane (1.8-4%). Blood pressure and heart rate data were collected on a Grass Polygraph recorder. The test articles, vehicle or protamine dosing preparations were administered once to each rat by a 10 minute intravenous infusion three minutes following a single intravenous injection of heparin (50 U/kg). Each animal received a dose volume of 2.0 mL/kg. Blood pressure was recorded prior to treatment for approximately 1 minute and immediately following heparin, immediately following vehicle, test articles or protamine and at 5, 15, 30, and 60 minutes following dosing. The doses of test agent were either 8 mg/kg or 16 mg/kg. The differences in hemodynamic effect at 16 mg/kg were especially profound (FIG. 5).

[15] = Coagulation properties via ROTEM; details: at fully efficacious doses
[16] = system: UFH; test: FXa amidolytic assay (Example 10), UFH; details: read-out: Heparin FXa uM EC50; UFH 0.03 units/mL; human antithrombin, bovine Factor Xa
Experimental: (§3) Two μl of test agent are added (range between 0.01 and 23 ug/ml) and incubated for 5 minutes at 23° C. Bovine Factor Xa was added to a final concentration of 0.636 nkat/mL and incubated for a further 10 minutes at 23° C.

[17] = system: enoxaparin; test: FXa amidolytic assay (Example 10), enoxaparin; details: read-out: Enox FXa EC50; enoxaparin 0.1 ug/ml; human antithrombin, bovine Factor Xa
Experimental: as §3

[18] = system: tinzaparin; test: FXa amidolytic assay (Example 10), tinzaparin; details: read-out: Tinzap FXa EC50; tinzaparin 0.1 ug/ml; human antithrombin, bovine Factor Xa
Experimental: as §3

[19] = system: fondaparinux; test: FXa amidolytic assay (Example 10), fondaparinux
Experimental: as §3

COc1ccc(NC(=O)[C@@H](CCCNC(=N)N)NC(=O)c2cc(NC(=O)[C@@H](CCCNC(=N)N)NC(=O)c3cc(NC(=O)[C@@H](CCCNC(=N)N)NC(=O)c4cc(NC(=O)[C@@H](C)N)ccc4OC)ccc3OC)ccc2OC)cc1C(N)=O [Compound 16]
UFH (aPTT) EC50 [1]: 2.41 µg/mL
percent of the anticoagulant effect of enoxaparin inhibited (FXa amidolytic) [2]: about 20%
ENOX (FXa) EC50 [3]: 0.32 µg/mL
FONDAPX (FXa) EC50 [4]: 1.22 µg/mL

COc1ccc(NC(=O)[C@H](CCCCN)NC(=O)c2cc(NC(=O)[C@H](CCCCN)NC(=O)c3cc(NC(=O)[C@H](CCCCN)NC(=O)c4cc(NC(=O)[C@@H](N)CCCCN)ccc4OC)ccc3OC)ccc2OC)cc1C(=O)N[C@@H](Cc1c[nH]c2ccccc12)C(=O)O [Compound 266]
hemolysis and cytotoxicity (summary) [5]: non-hemolytic and low cytotoxicity
EC50 ([5]; Homo sapiens, Erythrocyte, 1 h, human RBC, 1 hour at 37° C., read-out: Hemolysis EC50): > 1000 µg/mL
EC50 at 1 h [6]: 534 µg/mL (≈ 407 µM)
Cytotoxicity HepG2 EC50 [7]: >1000 µg/mL
EC50 at 1 h [8]: 838 µg/mL (≈ 638 µM)
Cytotoxicity 3T3 EC50 [9]: 848 µg/mL
EC50 [10]: 2440 nM and 1840 nM and 3480 nM
in vivo efficacy versus LMWH by anti-factor Xa activity (summary) [11]: superior to protamine
neutralization of enoxaparin (aPTT and factor Xa assays, words) [11]: completely neutralizes enoxaparin within minutes
neutralization of prolonged bleeding times ([12]; test agent 5 mg/kg IV): incomplete neutralization
reduction of Factor Xa (anti-factor Xa) levels after fondaparinux [13]: effective at the higher 5 mg/kg dose
hemodynamic response profile [14]: superior to protamine
hemodynamic liabilities (summary) [14]: reduced hemodynamic liabilities
coagulation properties via ROTEM [15]: normal coagulation properties at fully efficacious doses
EC50 [16]: 0.21 µM and 0.247 µM
EC50 [17]: 122 nM and 162 nM and 164 nM
EC50 [18]: 122 nM and 151 nM and 121 nM
Potent LMWH-antagonists with superior anti-fondaparinux activity (summary) [19]: superior anti-fondaparinux activity
EC50 ([19]; read-out: Fondap FXa EC50, fondaparinux 0.02 μg/mL, human antithrombin, bovine Factor Xa): 214 nM and 265 nM and 368 nM

COc1ccc(NC(=O)[C@@H](CCCNC(=N)N)NC(=O)c2cc(NC(=O)[C@@H](CCCNC(=N)N)NC(=O)c3cc(NC(=O)[C@@H](CCCNC(=N)N)NC(=O)c4cc(NC(=O)[C@H](N)CCCNC(=N)N)ccc4OC)ccc3OC)ccc2OCC(=O)O)cc1C(=O)N[C@H](Cc1c[nH]c2ccccc12)C(N)=O [Compound 305]
hemolysis and cytotoxicity (summary) [5]: non-hemolytic and low cytotoxicity
EC50 at 1 h [6]: 1000 µg/mL (≈ 681 µM)
Cytotoxicity HepG2, percent printed in parentheses after the concentration ([7]; at the concentration given): 50%
Cytotoxicity HepG2 EC50 [7]: >1000 µg/mL
EC50 at 1 h [8]: 1000 µg/mL (≈ 681 µM)
Cytotoxicity 3T3, percent printed in parentheses after the concentration ([9]; at the concentration given): 50%
Cytotoxicity 3T3 EC50 [9]: >1000 µg/mL
in vivo efficacy versus LMWH by anti-factor Xa activity (summary) [11]: superior to protamine
neutralization of enoxaparin (aPTT and factor Xa assays, words) [11]: marginally more efficacious than the 3-Arg derivative
in vivo efficacy versus LMWH by bleeding time (summary) ([12]; compared with protamine): superior to protamine
neutralization of prolonged bleeding times ([12]; test agent 2 mg/kg IV): completely neutralized
reduction of Factor Xa (anti-factor Xa) levels after fondaparinux [13]: effective in reducing Factor Xa activity
in vivo efficacy versus fondaparinux (summary) ([13]; in vivo): in vivo efficacy versus fondaparinux
hemodynamic response profile [14]: superior to protamine
hemodynamic liabilities (summary) [14]: reduced hemodynamic liabilities
coagulation properties via ROTEM [15]: normal coagulation properties at fully efficacious doses
EC50 [16]: 0.343 µM
EC50 [17]: 186 nM
Potent LMWH-antagonists with superior anti-fondaparinux activity (summary) [19]: superior anti-fondaparinux activity

COc1cc(OC)c(C(=O)N[C@H]2CC[C@H](NC(=O)c3cc(C(=O)NCCN(C)C)c(OCCCCCNC(=N)N)cc3OCCCCCNC(=N)N)CC2)cc1C(=O)N[C@H]1CC[C@H](NC(=O)c2cc(C(=O)NCCN(C)C)c(OCCCCCNC(=N)N)cc2OCCCCCNC(=N)N)CC1 [Compound B]
hemolysis and cytotoxicity (summary) [5]: non-hemolytic and low cytotoxicity
in vivo efficacy versus LMWH by anti-factor Xa activity (summary) [11]: superior to protamine
neutralization of prolonged bleeding times ([12]; test agent 5 mg/kg IV): not completely reverse
reduction of Factor Xa (anti-factor Xa) levels after fondaparinux [13]: lack of effectiveness
hemodynamic liabilities (summary) [14]: reduced hemodynamic liabilities
coagulation properties via ROTEM [15]: normal coagulation properties at fully efficacious doses
Potent LMWH-antagonists with superior anti-fondaparinux activity (summary) [19]: superior anti-fondaparinux activity
